Measured values: PubChem BioAssay AID1208 (EPA DSSTox, 2008)
Calls of active or inactive are those of the source.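 How the source made its calls: active means at least one rat sex group has a carcinogenic potency value and tumor site recorded; inconclusive means only rat studies were judged inadequate by the national testing program; inactive means no potency or tumor site, with negative rat experiments.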

Test system: rat chronic carcinogenicity bioassay, TD50
Experiment: DSSTox (CPDBAS) Carcinogenic Potency Database Summary Rat Bioassay Results
Settings: for outcome: TD50_Rat_Note: no positive results; for Potency: hits give low values
Method in brief: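 Chronic long-term rat cancer bioassays from literature and NCI/NTP, taking the most positive result per sex. TD50 in mmol converted to a 1–100 Activity Score from log10(1/TD50). Mixtures lacking TD50 scored 50.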

[1] = TargetSites_Rat_Female: no positive results
[2] = TargetSites_Rat_Female: mammary gland
[3] = TargetSites_Rat_Female: esophagus, oral cavity, stomach
[4] = TD50_Rat_Note: TD50 is harmonic mean of more than one positive test, TargetSites_Rat_Female: liver

COc1ccc(CCN2CCC(Nc3nc4ccccc4n3Cc3ccc(F)cc3)CC2)cc1
outcome [1]: inactive; no positive results

CCCN(N=O)C(N)=O
Potency (TD50_Rat_Note: TD50 is harmonic mean of more than one positive test, harmonic mean of TD50 includes a value for upper 99% confidence li, TargetSites_Rat_Female: hematopoietic system): 3.77 mg/kg/day

Nc1ccc([N+](=O)[O-])cc1
outcome [1]: inactive; no positive results

C=C1C/C(=C/C)C(=O)O[C@@H]2CCN3CC=C(COC(=O)[C@@]1(O)CO)[C@H]23
Potency (TD50_Rat_Note: TD50 is harmonic mean of more than one positive test, TargetSites_Rat_Female: hematopoietic system, liver, vascular system): 0.119 mg/kg/day

N#CN=C(N)N
outcome [1]: inactive; no positive results

CCNC(=O)Nc1ncc([N+](=O)[O-])s1
Potency [2]: 131 mg/kg/day

OCCOCCO
Potency [1]: 1660 mg/kg/day

O=[N+]([O-])c1ccc(-c2nc(NCCO)c3ccccc3n2)s1
Potency (TargetSites_Rat_Female: all tumor bearing animals): 1.87 mg/kg/day

C=CC(OCC)OCC
outcome [1]: inactive; no positive results

O=C(O)COc1cc(Cl)c(Cl)cc1Cl
outcome [1]: inactive; no positive results

COc1ccccc1N1CCN(CCCNc2cc(=O)n(C)c(=O)n2C)CC1
outcome [1]: inactive; no positive results

CC(O)CN(CC(O)CO)N=O (configuration not stated)
Potency [3]: 0.0535 mg/kg/day

O=NN1CC(=O)NC1=O
Potency (TD50_Rat_Note: TD50 is harmonic mean of more than one positive test, TargetSites_Rat_Female: all tumor bearing animals): 43.8 mg/kg/day

CC(COc1ccc(C(C)(C)C)cc1)OS(=O)OCCCl (configuration not stated)
Potency (TD50_Rat_Note: TD50 is harmonic mean of more than one positive test, TargetSites_Rat_BothSexes: liver): 96.7 mg/kg/day

CCC(C)[N+](=O)[O-] (configuration not stated)
Potency: 2.86 mg/kg/day

Nc1ccc(/C=C/c2ccc(N)cc2S(=O)(=O)O)c(S(=O)(=O)O)c1
outcome [1]: inactive; no positive results

Nc1ccc(Nc2ccccc2)cc1
outcome [1]: inactive; no positive results

CN(C)CCN(Cc1ccco1)c1ccccn1
outcome [1]: inactive; no positive results

CCN(Cc1cccc(S(=O)(=O)O)c1)c1ccc(C(=C2C=CC(=[N+](CC)Cc3cccc(S(=O)(=O)O)c3)C=C2)c2ccc(O)cc2S(=O)(=O)[O-])cc1
outcome [1]: inactive; no positive results

CC(=O)OC(OC(C)=O)c1ccc([N+](=O)[O-])o1
outcome [1]: inactive

CN(C)C(=S)SSC(=S)N(C)C
outcome [1]: inactive; no positive results

O=CNNc1nc(-c2ccco2)cs1
outcome [1]: inactive

O=P(=O)O
outcome [1]: inactive; no positive results

C=CC(=O)NCO
outcome [1]: inactive; no positive results

COc1ccc(N)cc1N
Potency (TD50_Rat_Note: TD50 is harmonic mean of more than one positive test, TargetSites_Rat_Female: clitoral gland, ear Zymbals gland, mammary gland, thyroid gland): 183 mg/kg/day

CCCCCN(CCCCC)N=O
Potency [4]: 4.03 mg/kg/day

Cc1cc(C)c(N=Nc2c(O)c(S(=O)(=O)O)cc3cc(S(=O)(=O)O)ccc23)cc1C
Potency (TD50_Rat_Note: TD50 is harmonic mean of more than one positive test, greater than ten-fold variation among TD50 values for positive res, TargetSites_Rat_Female: liver): 521 mg/kg/day

Clc1ccc2c(c1)Oc1ccc(Cl)cc1O2
outcome [1]: inactive; no positive results

O=[N+]([O-])c1ccc(NCCO)c(OCCO)c1
outcome [1]: inactive; no positive results

CC(C)O
outcome [1]: inactive; no positive results

CN(C)CCOC(c1ccccc1)c1ccccc1
outcome [1]: inactive; no positive results

Cc1ccc(N=Nc2c(O)ccc3ccccc23)c([N+](=O)[O-])c1
Potency [4]: 1170 mg/kg/day

CC(C)(C)c1cc([N+](=O)[O-])cc([N+](=O)[O-])c1OS(C)(=O)=O
outcome [1]: inactive; no positive results

CN1C2CC[C@@H]1CC(NC(=O)c1cc(Cl)cc3c1OC(C)(C)C3)C2 (some centres not stated)
outcome [1]: inactive; no positive results

O=P(O)(OCC(Br)CBr)OCC(Br)CBr (configuration not stated)
Potency (TD50_Rat_Note: TD50 is harmonic mean of more than one positive test, TargetSites_Rat_Female: esophagus, liver, small intestine, stomach): 32 mg/kg/day

O=[N+]([O-])c1ccc(-c2cnc3ccccn23)o1
Potency (TD50_Rat_Note: TD50 is harmonic mean of more than one positive test, TargetSites_Rat_Female: esophagus, kidney, mammary gland, stomach): 13.6 mg/kg/day

CC(=O)CN(CC(O)CO)N=O (configuration not stated)
Potency [3]: 0.0352 mg/kg/day

Cn1cnc2nc(N)[nH]c(=O)c21
outcome (TargetSites_Rat_BothSexes: no positive results): inactive

ClCc1ccccc1
outcome [1]: inactive; no positive results

ClCC(Br)CBr (configuration not stated)
Potency (TD50_Rat_Note: TD50 is harmonic mean of more than one positive test, TargetSites_Rat_Female: adrenal gland, mammary gland, nasal cavity, oral cavity, stomach): 0.259 mg/kg/day

Cn1c(N)nc2ncc(-c3ccccc3)cc21
Potency (TD50_Rat_Note: TD50 is harmonic mean of more than one positive test, TargetSites_Rat_Female: large intestine, mammary gland): 1.78 mg/kg/day

ClCC(Cl)CCl
Potency (TD50_Rat_Note: TD50 is harmonic mean of more than one positive test, TargetSites_Rat_Female: clitoral gland, ear Zymbals gland, mammary gland, oral cavity, stomach): 1.35 mg/kg/day

COc1cc(-c2ccc(N=C=O)c(OC)c2)ccc1N=C=O
Potency (TD50_Rat_Note: TD50 is harmonic mean of more than one positive test, TargetSites_Rat_Female: hematopoietic system, uterus): 1630 mg/kg/day

NC(=O)CCCCn1ccc(NC(N)=NCC(F)(F)F)n1
Potency (TD50_Rat_Note: TD50 is harmonic mean of more than one positive test, TargetSites_Rat_Female: stomach): 1170 mg/kg/day

C[C@]12CCC(=O)C=C1CC[C@@H]1[C@@H]2[C@@H](O)C[C@@]2(C)[C@H]1CC[C@]2(O)C(=O)CO
outcome [1]: inactive; no positive results

CNC(=S)N(C)C
Potency (TargetSites_Rat_Female: thyroid gland): 25.8 mg/kg/day

CCN(Cc1cccc(S(=O)(=O)[O-])c1)c1ccc(C(=C2C=CC(=[N+](C)C)C=C2)c2ccc(N(CC)Cc3cccc(S(=O)(=O)O)c3)cc2)cc1
Potency (TD50_Rat_Note: TD50 is harmonic mean of more than one positive test, TargetSites_Rat_Female: mammary gland, skin): 612 mg/kg/day

O=[N+]([O-])c1c(Cl)c(Cl)c(Cl)c(Cl)c1Cl
outcome [1]: inactive; no positive results

O=P(OCCCl)(OCCCl)OCCCl
Potency (TD50_Rat_Note: TD50 is harmonic mean of more than one positive test, TargetSites_Rat_Female: kidney): 86.7 mg/kg/day

C[C@H](CCc1ccccc1)NC[C@H](O)c1ccc(O)c(C(N)=O)c1
outcome [1]: inactive; no positive results

O=S(=O)(O)c1cc(S(=O)(=O)O)c2c(N=Nc3ccccc3)c(O)ccc2c1
outcome [1]: inactive; no positive results

CN(N=O)C(=O)c1c(N(C)N=O)ncn1C
Potency (TargetSites_Rat_BothSexes: stomach): 0.183 mg/kg/day

C[C@]12C/C(=C/O)C(=O)C[C@@H]1CC[C@@H]1[C@@H]2CC[C@@]2(C)[C@H]1CC[C@]2(C)O
Potency (TargetSites_Rat_Female: liver, lung, skin): 66.9 mg/kg/day

Nc1ccccc1
Potency (TD50_Rat_Note: TD50 is harmonic mean of more than one positive test, greater than ten-fold variation among TD50 values for positive res, TargetSites_Rat_Female: peritoneal cavity): 269 mg/kg/day | outcome: inactive; no positive results

CCOP(=S)(OCC)Oc1cc(C)nc(C(C)C)n1
outcome [1]: inactive; no positive results

O=C1NCCN1/N=C/c1ccc([N+](=O)[O-])o1
Potency (TargetSites_Rat_Female: hematopoietic system, mammary gland): 5.26 mg/kg/day

O=C1Nc2ccc(Cl)cc2C(c2ccccc2)=NC1O (configuration not stated)
outcome [1]: inactive; no positive results

O=NO
Potency (TD50_Rat_Note: TD50 is harmonic mean of more than one positive test, TargetSites_Rat_Female: liver, TargetSites_Rat_BothSexes: hematopoietic system): 167 mg/kg/day

COc1ccc(C)cc1N
Potency (TD50_Rat_Note: TD50 is harmonic mean of more than one positive test, TargetSites_Rat_Female: nasal cavity, urinary bladder): 98 mg/kg/day

O=NN(CC(F)(F)F)CC(F)(F)F
outcome [1]: inactive; no positive results

Cc1cc(C(C)(C)C)c(O)c(C(C)(C)C)c1
outcome [1]: inactive; no positive results

Cc1cccc(Nc2cc(Cl)nc(SCC(=O)NCCO)n2)c1C
Potency: 6.49 mg/kg/day

Cc1cc(O)ccc1O
outcome: inactive; no positive results

CC(C)CCC[C@@H](C)[C@H]1CC[C@H]2[C@@H]3CC=C4C[C@@H](OC(=O)Cc5ccc(N(CCCl)CCCl)cc5)CC[C@]4(C)[C@H]3CC[C@]12C
Potency [2]: 0.523 mg/kg/day

ClC(Cl)C(Cl)(Cl)Cl
outcome [1]: inactive; no positive results

Oc1ccc2ccccc2c1N=Nc1ccccc1
Potency [4]: 29.4 mg/kg/day

CC(=O)O[C@@H]1[C@@H](O)C2OC3C=C(C)C(=O)C(O)[C@@]3(CO)[C@]1(C)[C@]21CO1 (some centres not stated)
outcome: inactive; no positive results

CCOC(=O)C(O)(c1ccc(Cl)cc1)c1ccc(Cl)cc1
outcome [1]: inactive; no positive results

Nc1ccc(N=Nc2ccc(-c3ccc(N=Nc4c(S(=O)(=O)O)cc5cc(S(=O)(=O)O)c(N=Nc6ccccc6)c(O)c5c4N)cc3)cc2)c(N)c1
Potency [4]: 1.39 mg/kg/day

NNc1nc(-c2ccccc2)cs1
outcome [1]: inactive

O=C(O)[C@@H]1[C@H](C(=O)O)[C@@]2(Cl)C(Cl)=C(Cl)[C@]1(Cl)C2(Cl)Cl
Potency [4]: 40.8 mg/kg/day

CN(N=O)C(=O)NCCC[C@H](N)C(=O)O
Potency (TD50_Rat_Note: positive test results only by intraperitoneal or intravenous injection, TD50 is harmonic mean of more than one positive, TargetSites_Rat_Female: kidney, mammary gland, pancreas, skin): 0.787 mg/kg/day

CC(=O)Oc1c(C)c(C)c2c(c1C)CCC(C)(CCCC(C)CCCC(C)CCCC(C)C)O2 (configuration not stated)
outcome [1]: inactive; no positive results

Nc1cc([N+](=O)[O-])ccc1C(=O)O
outcome [1]: inactive; no positive results

COc1c(Cl)c(Cl)c([N+](=O)[O-])c(Cl)c1Cl
outcome [1]: inactive; no positive results

Cn1c(=O)c2c(ncn2C)n(C)c1=O
outcome [1]: inactive; no positive results

N[C@@H](CC(=O)O)C(=O)O
outcome [1]: inactive; no positive results

Cc1cc(Cl)ccc1OCC(=O)O
outcome [1]: inactive; no positive results

CN(C)Nc1nc(-c2ccc([N+](=O)[O-])o2)cs1
Potency (TD50_Rat_Note: harmonic mean of TD50 includes a value for upper 99% confidence limit from study with 100% tumor incidence but no lifeta, TargetSites_Rat_Female: hematopoietic system, mammary gland): 0.41 mg/kg/day

CNC(=O)c1c(N(C)N=O)ncn1C
Potency (TargetSites_Rat_BothSexes: nasal cavity): 1 mg/kg/day

CC(=O)OC/C=C(\C)CCC=C(C)C
outcome [1]: inactive; no positive results
